From ChEMBL document CHEMBL1128381, “Hypoxia-selective antitumor agents. 10. bis(nitroimidazoles) and related Bis(nitroheterocycles): development of derivatives with higher rates of metabolic activation under hypoxia and improved aqueous solubility” (J Med Chem, 1995) come the findings set out here.

Calls of active or inactive are those of the source. The rule behind the calls is not given here.

Series [1] concerns UV4. Description: Hypersensitivity (HF) factor in chinese hamster cell line UV4 [HF= ratio (IC50 in AA8 cells)/(IC50 in UV4 cells)]. It is filed as functional, Cricetulus griseus.
The subject of series [2] is EMT6. The series is described as follows: Hypersensitivity (HF) factor in murine mammary carcinoma EMT6 cells [HF= ratio (IC50 in AA8 cells)/(IC50 in EMT6)]. It is filed as functional, Mus musculus.
The test system of series [3] is CHO-AA8. Description: Aerobic growth inhibition in Chinese hamster cell line AA8. In kind it is functional, cell-based. To be noted: Cricetulus griseus.
In series [4] the test system is FME. The series is described as follows: Hypersensitivity (HF) factor in human melanoma FME cells [HF= ratio (IC50 in AA8 cells)/(IC50 in FME cells)]. In kind it is functional.
The nature of series [5]: Ratio between aerobic CT10 and hypoxic CT10. In kind it is functional.
Series [6] relates to CHO-AA8. The series is described as follows: Concentration x time (uM h) to reduce cell survival to 10% of control values under hypoxic conditions by clonogenic assay. To be noted: chinese hamster. It is filed as ADME, cell-based, Cricetulus griseus.
A short description of series [7]: Ratio between aerobic CT10 and hypoxic CT10; No aerobic cytotoxicity at the solubility limit.
Series [8] has as its system EMT6. The series is described as follows: Evaluated for hypersensitivity (HF) factor in murine mammary carcinoma EMT6 cells as HF=IC50 for AA8/IC50 for the murine mammary carcinoma EMT6; f means inactive at the solubility limit. In kind it is functional, cell-based. To be noted: Mus musculus.
In series [9] the test system is FME. The series is described as follows: Evaluated for hypersensitivity (HF) factor in human melanoma FME cells as HF=IC50 for AA8/IC50 for the human melanoma FME; f means inactive at the solubility limit. It is filed as functional, cell-based.
Series [10] concerns UV4. Description: Evaluated for hypersensitivity (HF) factor in chinese hamster cell line UV4; Evaluated as HF=IC50 for AA8/IC50 for the chinese hamster cell line UV4; f means inactive at solubility limit. In kind it is functional, cell-based. To be noted: Cricetulus griseus.
In series [11] the test system is CHO-AA8. The series is described as follows: Concentration x time (uM h) to reduce cell survival to 10% of control values under hypoxic conditions by clonogenic assay. Inactive at the solubility limit. It is filed as ADME, cell-based, Cricetulus griseus. Conditions: chinese hamster.

Turning to `Cc1ncc([N+](=O)[O-])n1CCNS(=O)(=O)CCCn1cnc([N+](=O)[O-])n1`, the HF is on record as below 1.35 in series [1], below 1.35 in series [2] and 1.19 in series [4]. The 50% inhibitory concentration (IC50) (in general, the concentration needed to halve the response being measured) in [3] worked out at 1.14 mM.

Turning to `Cc1ncc([N+](=O)[O-])n1CCNCCCn1ccnc1[N+](=O)[O-]`, in [5], the selectivity ratio amounted to 14. The HF in [1] is on record as 1.42; in [2], 4.73; in [4], 3.61. This compound also registered an IC50 in series [3] of 4.74 mM. Also, the CT10 in series [6] was found to be 2400 µM·h.

Turning to `O=[N+]([O-])c1nccn1CC1OC(n2ccnc2[N+](=O)[O-])C(O)C(O)C1O` (stereo not drawn), in series [7], the selectivity ratio is above 1.5. The HF is reported as 0.89 in series [1], below 0.8 in [2] and 2.44 in [4]. This compound also had an IC50 in series [3] of 7.4 mM. This compound also returned a CT10 in [6] of 57000 µM·h.

As for `COCC(O)Cn1ccnc1[N+](=O)[O-]` (stereo not drawn) [MISONIDAZOLE], the selectivity ratio in series [5] was 18. Besides, the HF in [1] stood at 1.37; in series [2], 3.6; in series [4] it was 1.94. This compound displayed a CT10 in [6] of 16000 µM·h.

As for `O=C(CCCn1cnc([N+](=O)[O-])n1)NCCCn1ccnc1[N+](=O)[O-]`, in series [5], the selectivity ratio came to 3.5. Further, the HF is recorded as 1.25 in series [1], 8.38 in series [2] and 5.94 in series [4]. This compound yielded an IC50 in series [3] of 5.28 mM. In [6], this compound registered a CT10 of 17000 µM·h.

Consider `Cc1ncc([N+](=O)[O-])n1CC(O)Cn1ccnc1[N+](=O)[O-]` (stereo not drawn), for which, in series [7], the selectivity ratio is above 3. The HF in series [1] is above 0.85; in [8] it was “Inactive at solubility limit”; in [4], above 1.11. Further, in series [3], the half-inhibitory concentration (IC50) is above 0.8 mM. The same compound registered a CT10 in [6] of 2400 µM·h.

Turning to `O=C(CCCn1cnc([N+](=O)[O-])n1)NCCn1ccnc1[N+](=O)[O-]`, the selectivity ratio in [7] was above 1. For the same compound, the figures for the HF in series [1], in series [2] and in [4] were 1.17, 1.76 and above 1.9, respectively. In addition, inhibition in [3] was half-maximal at 1.71 mM (IC50). This compound returned a CT10 in series [6] of 15000 µM·h.

For the compound `CN(CCCn1ccnc1[N+](=O)[O-])CCCn1ccnc1[N+](=O)[O-]`, the selectivity ratio in series [5] worked out at 40. The HF stood at 0.97 in series [1], 2.6 in [2] and 2.55 in [4]. The half-maximal inhibitory concentration (IC50) in series [3] is 0.81 mM. This compound also had a CT10 in series [6] of 700 µM·h.

For the compound `C[N+](C)(CCCn1ccnc1[N+](=O)[O-])CCCn1ccnc1[N+](=O)[O-].[I-]`, the selectivity ratio in series [5] was 10. For the same compound, the HF was determined as 0.89 in [1], 24.2 in series [2] and 4.85 in series [4]. In [3], this compound registered an IC50 of 3.65 mM. The CT10 in [6] is 23000 µM·h.

`Cc1ncc([N+](=O)[O-])n1CC(O)Cn1cnc([N+](=O)[O-])n1` (stereo not drawn): the HF in series [1] worked out at 1.16; in series [2], 4.85; in [4] it was 3.63. The compound also showed a half-inhibitory concentration (IC50) in series [3] of 2.3 mM. The compound further returned a CT10 in series [6] above 47000 µM·h.

Consider `Cc1ncc([N+](=O)[O-])n1CCNCCCCn1ccnc1[N+](=O)[O-]`, for which the selectivity ratio in series [5] amounted to 12. Moreover, the values for the HF in series [1], in series [2] and in series [4] were 1.07, 2.12 and 1.27, respectively. In [3], this compound displayed an IC50 of 2 mM. Besides, the CT10 in [6] is 2400 µM·h.

As to `Cc1ncc([N+](=O)[O-])n1CCN(C)CCCCn1ccnc1[N+](=O)[O-]`, the selectivity ratio in series [5] is 8. Moreover, the values for the HF in series [1], in series [2] and in [4] were 0.98, 1.44 and 1.54, respectively. The compound further gave a half-maximal inhibitory concentration (IC50) in series [3] of 1 mM. For the same compound, the CT10 in [6] came to 2000 µM·h.

In the case of `O=C(NCCCn1ccnc1[N+](=O)[O-])C(=O)NCCCn1ccnc1[N+](=O)[O-]`, the HF result in [9], in series [10] and in [8] was “Inactive at solubility limit” each time. The half-inhibitory concentration (IC50) in series [3] is above 0.08 mM. Besides, the CT10 in series [11] is above 700 µM·h.

Consider `Cc1ncc([N+](=O)[O-])n1CCN(C)C(=O)CCCn1ccnc1[N+](=O)[O-]`, for which the selectivity ratio in series [5] is above 18. Besides, the HF in series [1] is 1.05; in series [2], 2.09; in [4], 2.83. In series [3], this compound displayed a half-inhibitory concentration (IC50) of 4.8 mM. In series [6], this compound came in with a CT10 of 7200 µM·h.

Turning to `Cc1ncc([N+](=O)[O-])n1CCNC(=O)CCC(=O)NCCn1ccnc1[N+](=O)[O-]`, the selectivity ratio in [7] is above 6. Further, the HF in series [1] turned out to be 1; in [2], 7.09; in series [4], 3.49. This compound also registered an IC50 in series [3] of 6.6 mM. Also, the CT10 in series [6] worked out at 47000 µM·h.

For `Cc1ncc([N+](=O)[O-])n1CCNC(=O)CCCn1ccnc1[N+](=O)[O-]`, the selectivity ratio in series [5] was 8. Moreover, the HF in series [1] is 1.38; in series [2], 4.64; in series [4] it was 3.51. The CT10 in [6] amounted to 12000 µM·h.

Regarding `O=[N+]([O-])c1nccn1CC(O)CNCCBr` (stereo not drawn), in series [5], the selectivity ratio is 20. In addition, the HF in [1] turned out to be 5.85; in series [2] it was 1.55; in [4], 1. For the same compound, in series [6], the CT10 was 400 µM·h.

As to `Cc1ncc([N+](=O)[O-])n1CCNC(=O)CCCn1cnc([N+](=O)[O-])n1`, the selectivity ratio in series [5] was above 1.3. The HF is on record as 1.2 in series [1], 4.94 in [2] and 4.51 in series [4]. Further, it took 6.42 mM to reach half-maximal inhibition in series [3] (IC50). In series [6], this compound gave a CT10 of 100000 µM·h.

For `O=C(CCCn1ccnc1[N+](=O)[O-])NCCn1cnc([N+](=O)[O-])n1`, the selectivity ratio in series [7] is above 6. Further, the HF came to 1.19 in [1], 10.7 in series [2] and 6.9 in series [4]. In series [3], this compound returned an IC50 of 6.92 mM. Besides, the CT10 in series [6] was found to be 17000 µM·h.

For the compound `Cc1ncc([N+](=O)[O-])n1CCNS(=O)(=O)CCCn1ccnc1[N+](=O)[O-]`, the HF in series [2] is above 0.84; in series [10] it was “Inactive at solubility limit”; in series [4], above 0.91. In series [3], the IC50 is above 40.3 mM.

`O=[N+]([O-])c1nccn1CC(O)CN1CCCCC1` (stereo not drawn) [PIMONIDAZOLE]: the selectivity ratio in series [5] stood at 40. The HF amounted to 1.37 in series [1], 6.3 in [2] and 4.07 in [4]. Further, the IC50 in series [3] was 3.03 mM. In addition, in [6], the CT10 came out at 3500 µM·h.

For `O=[N+]([O-])c1nccn1CCCNCCCn1ccnc1[N+](=O)[O-]`, the selectivity ratio in series [5] worked out at 40. Moreover, the HF in [1] is on record as 0.9; in series [2], 5.37; in [4], 2.58. In addition, in series [3], half-maximal inhibition (IC50) required 1.18 mM. Moreover, the CT10 in series [6] was 2300 µM·h.
